# Values quoted from earlier work in patent US20130108599A1, “Herbal Vaginal Compositions” (priority 2011, published 2013).
# Tests used:
# [1] = tested on: Candida albicans (KCTC 7270)
SMILES,growth of C. albicans [1],anti-microbial activity among the catechins (vaginal pathogens)
Cn1c(=O)c2c(ncn2C)n(C)c1=O [caffeine],strongly inhibited,–
O=C(O[C@@H]1Cc2c(O)cc(O)cc2O[C@@H]1c1cc(O)c(O)c(O)c1)c1cc(O)c(O)c(O)c1 [epigallocatechin gallate],–,strongest anti-microbial activity
